Laboratory results: ChEMBL document CHEMBL3351680, “Structure-based design, synthesis and biological evaluation of novel β-secretase inhibitors containing a pyrazole or thiazole moiety as the P3 ligand” (Bioorg Med Chem Lett, 2015)

target: Beta-secretase 1 (Homo sapiens, UniProt P56817); test: Inhibition of recombinant BACE1 (unknown origin)
Sequence (P56817 whole entry): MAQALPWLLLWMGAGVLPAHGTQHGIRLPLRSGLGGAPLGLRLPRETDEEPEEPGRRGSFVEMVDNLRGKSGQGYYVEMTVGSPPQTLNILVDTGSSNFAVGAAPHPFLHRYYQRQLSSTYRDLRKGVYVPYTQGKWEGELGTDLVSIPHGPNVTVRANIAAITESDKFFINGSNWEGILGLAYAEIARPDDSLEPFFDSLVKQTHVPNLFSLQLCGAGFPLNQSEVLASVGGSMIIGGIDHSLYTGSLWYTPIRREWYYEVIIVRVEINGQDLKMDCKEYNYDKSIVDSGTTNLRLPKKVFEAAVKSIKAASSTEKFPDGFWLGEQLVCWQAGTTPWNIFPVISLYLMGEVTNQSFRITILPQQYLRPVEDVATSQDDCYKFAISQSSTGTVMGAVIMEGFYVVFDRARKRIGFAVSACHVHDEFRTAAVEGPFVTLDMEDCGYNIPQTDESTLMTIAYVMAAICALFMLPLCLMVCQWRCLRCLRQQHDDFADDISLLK

| Ki [nM] | Compound |
| --- | --- |
| 64.2 | CSC[C@H](NC(=O)[C@@H](C)Cn1nc(C)cc1C)C(=O)N[C@@H](CC(C)C)[C@@H](O)C[C@@H](C)C(=O)N[C@H](C(=O)NCC(C)C)C(C)C |
| 16.8 | CC[C@@H](Cc1csc(C)n1)C(=O)N[C@@H](CNC(=O)OC(C)(C)C)C(=O)N[C@@H](CC(C)C)[C@@H](O)C[C@@H](C)C(=O)N[C@H](C(=O)NCC(C)C)C(C)C |
| 63.1 | CC[C@@H](Cn1nc(C)cc1C)C(=O)N[C@@H](CNC(=O)OC(C)(C)C)C(=O)N[C@@H](CC(C)C)[C@@H](O)C[C@@H](C)C(=O)N[C@H](C(=O)NCC(C)C)C(C)C |
| 201 | Cc1ccn(C[C@H](C)C(=O)N[C@@H](CNC(=O)OC(C)(C)C)C(=O)N[C@@H](CC(C)C)[C@@H](O)C[C@@H](C)C(=O)N[C@H](C(=O)NCC(C)C)C(C)C)n1 |
| 148 | Cc1cc(C)n(C[C@H](CC(C)C)C(=O)N[C@@H](CNC(=O)OC(C)(C)C)C(=O)N[C@@H](CC(C)C)[C@@H](O)C[C@@H](C)C(=O)N[C@H](C(=O)NCC(C)C)C(C)C)n1 |
| 192 | Cc1cc(C)n(C[C@H](C)C(=O)N[C@@H](CS(C)(=O)=O)C(=O)N[C@@H](CC(C)C)[C@@H](O)C[C@@H](C)C(=O)N[C@H](C(=O)NCC(C)C)C(C)C)n1 |
| 471 | Cc1cc(C)n(C[C@@H](C(=O)N[C@@H](CNC(=O)OC(C)(C)C)C(=O)N[C@@H](CC(C)C)[C@@H](O)C[C@@H](C)C(=O)N[C@H](C(=O)NCC(C)C)C(C)C)C(C)C)n1 |
| 31.9 | Cc1nc(C[C@H](C)C(=O)N[C@@H](CNC(=O)OC(C)(C)C)C(=O)N[C@@H](CC(C)C)[C@@H](O)C[C@@H](C)C(=O)N[C@H](C(=O)NCC(C)C)C(C)C)cs1 |

| Compound | Ki [nM] |
| --- | --- |
| Cc1csc(C[C@@H](C(=O)N[C@@H](CNC(=O)OC(C)(C)C)C(=O)N[C@@H](CC(C)C)[C@@H](O)C[C@@H](C)C(=O)N[C@H](C(=O)NCC(C)C)C(C)C)C(C)C)n1 | 28.9 |
| CC[C@@H](Cc1nc(C)cs1)C(=O)N[C@@H](CNC(=O)OC(C)(C)C)C(=O)N[C@@H](CC(C)C)[C@@H](O)C[C@@H](C)C(=O)N[C@H](C(=O)NCC(C)C)C(C)C | 10.8 |
| Cc1csc(C[C@H](C)C(=O)N[C@@H](CNC(=O)OC(C)(C)C)C(=O)N[C@@H](CC(C)C)[C@@H](O)C[C@@H](C)C(=O)N[C@H](C(=O)NCC(C)C)C(C)C)n1 | 0.25 |

target: Cathepsin D (Homo sapiens, UniProt P07339); test: Inhibition of Cathepsin D (unknown origin)
Sequence (P07339 65-162 limits assumed): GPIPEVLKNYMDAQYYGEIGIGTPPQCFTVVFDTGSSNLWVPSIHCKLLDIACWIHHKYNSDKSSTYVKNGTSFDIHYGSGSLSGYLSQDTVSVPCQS
Sequence (P07339 169-412 limits assumed): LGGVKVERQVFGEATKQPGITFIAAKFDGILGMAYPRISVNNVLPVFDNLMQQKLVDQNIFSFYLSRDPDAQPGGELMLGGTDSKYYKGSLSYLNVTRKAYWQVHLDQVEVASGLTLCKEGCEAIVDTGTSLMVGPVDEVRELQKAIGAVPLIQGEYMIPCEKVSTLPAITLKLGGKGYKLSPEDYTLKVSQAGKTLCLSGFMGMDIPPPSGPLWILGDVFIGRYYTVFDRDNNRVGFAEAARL

| Compound | Ki [nM] |
| --- | --- |
| Cc1csc(C[C@H](C)C(=O)N[C@@H](CNC(=O)OC(C)(C)C)C(=O)N[C@@H](CC(C)C)[C@@H](O)C[C@@H](C)C(=O)N[C@H](C(=O)NCC(C)C)C(C)C)n1 | 1.25 |

target: T1, Beta-secretase 2 (Homo sapiens, UniProt Q9Y5Z0); test: Inhibition of memapsin 1 (unknown origin)
T1 sequence (Q9Y5Z0 whole entry): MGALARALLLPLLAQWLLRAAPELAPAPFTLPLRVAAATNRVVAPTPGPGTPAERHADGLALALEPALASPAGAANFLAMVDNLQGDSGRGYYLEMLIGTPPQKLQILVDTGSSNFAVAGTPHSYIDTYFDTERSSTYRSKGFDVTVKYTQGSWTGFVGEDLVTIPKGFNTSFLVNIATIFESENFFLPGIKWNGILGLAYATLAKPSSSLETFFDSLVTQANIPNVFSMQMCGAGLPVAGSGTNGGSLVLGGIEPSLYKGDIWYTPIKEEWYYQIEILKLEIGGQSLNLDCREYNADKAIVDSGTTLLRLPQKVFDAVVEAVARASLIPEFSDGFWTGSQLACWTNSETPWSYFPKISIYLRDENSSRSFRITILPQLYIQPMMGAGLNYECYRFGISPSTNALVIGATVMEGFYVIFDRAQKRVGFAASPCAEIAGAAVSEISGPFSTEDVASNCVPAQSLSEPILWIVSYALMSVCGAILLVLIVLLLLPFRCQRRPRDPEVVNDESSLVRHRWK

| Compound | Ki [nM] |
| --- | --- |
| Cc1csc(C[C@H](C)C(=O)N[C@@H](CNC(=O)OC(C)(C)C)C(=O)N[C@@H](CC(C)C)[C@@H](O)C[C@@H](C)C(=O)N[C@H](C(=O)NCC(C)C)C(C)C)n1 | 71 |
